Here are results for three compounds from ChEMBL document CHEMBL3045878, “Effect of Insect Hormone Related Compounds on the Growth of Insect Cells” (1997).

Holding throughout (assay type): functional
The nature of assay [1]: Juvenile hormone mimic activity in Spodoptera frugiperda (fall armyworm) Sf21 cells assessed as cell number at 3.7 x 10 '-10 M after 5 days by trypan blue exclusion assay.
Assay [2] is described as follows: Juvenile hormone mimic activity in Spodoptera frugiperda (fall armyworm) Sf21 cells assessed as cell number at 3.7 x 10 '-11 M after 5 days by trypan blue exclusion assay.
Assay [3] can be described thus: Juvenile hormone mimic activity in Spodoptera frugiperda (fall armyworm) Sf21 cells assessed as cell number at 3.7 x 10 '-8 M after 5 days by trypan blue exclusion assay.
The nature of assay [4]: Juvenile hormone mimic activity in Spodoptera frugiperda (fall armyworm) Sf21 cells assessed as cell number at 3.7 x 10 '-9 M after 5 days by trypan blue exclusion assay.
Assay [5] is described as follows: Juvenile hormone mimic activity in Spodoptera frugiperda (fall armyworm) Sf21 cells assessed as cell number at 3.7 x 10 '-7 M after 5 days by trypan blue exclusion assay.
A short description of assay [6]: Juvenile hormone mimic activity in Spodoptera frugiperda (fall armyworm) Sf21 cells assessed as cell number at 3.7 x 10 '-12 M after 5 days by trypan blue exclusion assay.

Consider `COC(C)(C)CCC[C@H](C)C/C=C/C(C)=C/C(=O)OC(C)C` [METHOPRENE], for which the Activity in assay [1] came out at 6.9%; in assay [2], 6.7%; in assay [3] it was 6%; in assay [4], 6.5%; in assay [5], 6%; in assay [6], 6.4%.

On to `CCc1ccc(C(=O)NN(C(=O)c2cc(C)cc(C)c2)C(C)(C)C)cc1` [TEBUFENOZIDE], for which the Activity was 5.6% in assay [1]; 5.4% in assay [2]; 5.1% in assay [3]; 5.7% in assay [4]; 4.3% in assay [5].

As to `CC(C)=CCC/C(C)=C/c1cncn1Cc1ccccc1`, the Activity in assay [1] came to 5.5%; in assay [2] it was 5.5%; in assay [3] it was 4.2%; in assay [4], 4.9%; in assay [5] it was 3.3%.
